Laboratory results reported in patent US12157741B2, “Macrocyclic inhibitors of DYRK1A” (DANA-FARBER CANCER INSTITUTE, INC., priority 2018, dated 2024).
Read-outs that look alike come from different tables or passages of the source.

Columns and labels:
Type in all cases: binding
[1] = target: various enzymes (Homo sapiens, UniProt O00506); details: compound 1 uM
Description: (§1) Ambit profiling was conducted in accordance with the manufacturer's instructions.

[2] = target: various enzymes (Homo sapiens, UniProt O14936); details: compound 1 uM
Description: as §1

[3] = target: T1, various enzymes (Homo sapiens, UniProt O60285); details: compound 1 uM
T1 sequence (O60285 1-661): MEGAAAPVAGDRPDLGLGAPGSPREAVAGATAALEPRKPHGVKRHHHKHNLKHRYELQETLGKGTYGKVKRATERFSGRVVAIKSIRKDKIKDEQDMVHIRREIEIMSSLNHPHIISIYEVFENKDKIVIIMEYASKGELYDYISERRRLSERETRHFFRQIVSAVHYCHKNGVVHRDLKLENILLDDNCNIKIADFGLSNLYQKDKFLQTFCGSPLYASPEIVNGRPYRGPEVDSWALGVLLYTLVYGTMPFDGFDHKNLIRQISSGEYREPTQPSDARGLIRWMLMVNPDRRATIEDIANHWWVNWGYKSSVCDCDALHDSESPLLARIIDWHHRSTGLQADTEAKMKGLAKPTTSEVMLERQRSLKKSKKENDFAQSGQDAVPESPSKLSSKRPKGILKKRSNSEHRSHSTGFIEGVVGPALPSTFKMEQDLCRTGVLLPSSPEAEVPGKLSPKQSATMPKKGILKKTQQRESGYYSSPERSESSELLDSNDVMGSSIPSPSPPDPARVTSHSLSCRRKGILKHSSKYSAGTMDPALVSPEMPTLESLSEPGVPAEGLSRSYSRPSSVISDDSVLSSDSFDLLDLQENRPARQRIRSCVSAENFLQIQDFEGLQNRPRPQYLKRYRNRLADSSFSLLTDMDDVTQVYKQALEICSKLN
Description: as §1

[4] = target: various enzymes (Homo sapiens, UniProt O60331); details: compound 1 uM
Description: as §1

[5] = target: various enzymes (Homo sapiens, UniProt O94804); details: compound 1 uM
Description: as §1

[6] = target: various enzymes (Homo sapiens, UniProt O96017); details: compound 1 uM
Description: as §1

[7] = target: various enzymes (Homo sapiens, UniProt P04629); details: compound 1 uM
Description: as §1

[8] = target: various enzymes (Homo sapiens, UniProt P10721, V559D/V654A)
Description: as §1

[9] = target: various enzymes (Homo sapiens, UniProt P16234); details: compound 1 uM
Description: as §1

[10] = target: various enzymes (Homo sapiens, UniProt P23443); details: compound 1 uM
Description: as §1

[11] = target: various enzymes (Homo sapiens, UniProt P25098); details: compound 1 uM
Description: as §1

[12] = target: various enzymes (Homo sapiens, UniProt P29317); details: compound 1 uM
Description: as §1

[13] = target: various enzymes (Homo sapiens, UniProt P29597); details: compound 1 uM
Description: as §1

[14] = target: various enzymes (Homo sapiens, UniProt P32298); details: compound 1 uM
Description: as §1

[15] = target: various enzymes (Homo sapiens, UniProt P36888, N841I); details: compound 1 uM
Description: as §1

[16] = target: various enzymes (Homo sapiens, UniProt P42345); details: compound 1 uM
Description: as §1

[17] = target: various enzymes (Homo sapiens, UniProt P42679); details: compound 1 uM
Description: as §1

[18] = target: various enzymes (Homo sapiens, UniProt P42685); details: compound 1 uM
Description: as §1

[19] = target: various enzymes (Homo sapiens, UniProt P52333); details: compound 1 uM
Description: as §1

[20] = target: various enzymes (Homo sapiens, UniProt Q02763); details: compound 1 uM
Description: as §1

[21] = target: various enzymes (Homo sapiens, UniProt Q12851); details: compound 1 uM
Description: as §1

[22] = target: various enzymes (Homo sapiens, UniProt Q15418); details: compound 1 uM
Description: as §1

[23] = target: various enzymes (Homo sapiens, UniProt Q16288); details: compound 1 uM
Description: as §1

[24] = target: various enzymes (Homo sapiens, UniProt Q16513); details: compound 1 uM
Description: as §1

[25] = target: various enzymes (Homo sapiens, UniProt Q6XUX3); details: compound 1 uM
Description: as §1

[26] = target: various enzymes (Homo sapiens, UniProt Q6ZN16); details: compound 1 uM
Description: as §1

[27] = target: various enzymes (Homo sapiens, UniProt Q7KZI7); details: compound 1 uM
Description: as §1

[28] = target: various enzymes (Homo sapiens, UniProt Q8NE63); details: compound 1 uM
Description: as §1

[29] = target: various enzymes (Homo sapiens, UniProt Q96NX5); details: compound 1 uM
Description: as §1

[30] = target: various enzymes (Homo sapiens, UniProt Q9BQI3); details: compound 1 uM
Description: as §1

[31] = target: various enzymes (Homo sapiens, UniProt Q9H422); details: compound 1 uM
Description: as §1

[32] = target: various enzymes (Homo sapiens, UniProt Q9UEW8); details: compound 1 uM
Description: as §1

[33] = target: various enzymes (Homo sapiens, UniProt Q9UIK4); details: compound 1 uM
Description: as §1

[34] = target: various enzymes (Homo sapiens, UniProt Q9Y2I7); details: compound 1 uM
Description: as §1

[35] = target: various enzymes (Homo sapiens, UniProt Q9Y5S2); details: compound 1 uM
Description: as §1

Sequence of various enzymes (Homo sapiens, UniProt P29597) (P29597 whole entry): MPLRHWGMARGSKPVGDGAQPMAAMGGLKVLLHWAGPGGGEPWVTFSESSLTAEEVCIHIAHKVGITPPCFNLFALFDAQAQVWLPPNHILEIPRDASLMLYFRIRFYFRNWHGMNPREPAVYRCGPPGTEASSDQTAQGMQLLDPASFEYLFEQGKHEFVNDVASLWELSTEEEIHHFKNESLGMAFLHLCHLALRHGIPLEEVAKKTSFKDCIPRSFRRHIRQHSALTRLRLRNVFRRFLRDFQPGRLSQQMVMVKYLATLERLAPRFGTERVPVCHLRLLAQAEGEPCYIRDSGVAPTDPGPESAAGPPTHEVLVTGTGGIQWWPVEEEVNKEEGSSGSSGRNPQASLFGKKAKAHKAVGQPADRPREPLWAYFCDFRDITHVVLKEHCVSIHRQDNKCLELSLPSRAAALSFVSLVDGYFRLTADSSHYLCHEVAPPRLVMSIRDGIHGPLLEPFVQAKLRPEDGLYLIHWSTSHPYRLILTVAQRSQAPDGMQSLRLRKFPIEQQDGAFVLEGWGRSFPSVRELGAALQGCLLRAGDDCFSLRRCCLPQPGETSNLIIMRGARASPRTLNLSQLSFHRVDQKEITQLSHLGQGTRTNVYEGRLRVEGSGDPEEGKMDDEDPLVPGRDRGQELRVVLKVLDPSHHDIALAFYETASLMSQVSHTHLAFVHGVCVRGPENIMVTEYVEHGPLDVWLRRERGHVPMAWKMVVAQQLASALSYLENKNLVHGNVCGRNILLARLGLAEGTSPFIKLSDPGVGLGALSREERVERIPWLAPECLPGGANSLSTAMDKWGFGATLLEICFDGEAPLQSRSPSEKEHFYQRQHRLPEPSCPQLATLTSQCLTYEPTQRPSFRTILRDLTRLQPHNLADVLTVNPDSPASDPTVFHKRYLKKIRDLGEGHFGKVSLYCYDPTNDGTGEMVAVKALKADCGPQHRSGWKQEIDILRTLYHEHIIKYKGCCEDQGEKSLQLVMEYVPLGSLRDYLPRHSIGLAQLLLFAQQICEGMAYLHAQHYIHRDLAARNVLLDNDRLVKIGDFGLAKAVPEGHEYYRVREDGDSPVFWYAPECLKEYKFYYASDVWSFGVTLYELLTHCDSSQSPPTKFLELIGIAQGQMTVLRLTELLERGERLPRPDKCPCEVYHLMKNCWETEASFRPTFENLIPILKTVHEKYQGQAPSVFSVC
Sequence of various enzymes (Homo sapiens, UniProt Q15418) (Q15418 whole entry): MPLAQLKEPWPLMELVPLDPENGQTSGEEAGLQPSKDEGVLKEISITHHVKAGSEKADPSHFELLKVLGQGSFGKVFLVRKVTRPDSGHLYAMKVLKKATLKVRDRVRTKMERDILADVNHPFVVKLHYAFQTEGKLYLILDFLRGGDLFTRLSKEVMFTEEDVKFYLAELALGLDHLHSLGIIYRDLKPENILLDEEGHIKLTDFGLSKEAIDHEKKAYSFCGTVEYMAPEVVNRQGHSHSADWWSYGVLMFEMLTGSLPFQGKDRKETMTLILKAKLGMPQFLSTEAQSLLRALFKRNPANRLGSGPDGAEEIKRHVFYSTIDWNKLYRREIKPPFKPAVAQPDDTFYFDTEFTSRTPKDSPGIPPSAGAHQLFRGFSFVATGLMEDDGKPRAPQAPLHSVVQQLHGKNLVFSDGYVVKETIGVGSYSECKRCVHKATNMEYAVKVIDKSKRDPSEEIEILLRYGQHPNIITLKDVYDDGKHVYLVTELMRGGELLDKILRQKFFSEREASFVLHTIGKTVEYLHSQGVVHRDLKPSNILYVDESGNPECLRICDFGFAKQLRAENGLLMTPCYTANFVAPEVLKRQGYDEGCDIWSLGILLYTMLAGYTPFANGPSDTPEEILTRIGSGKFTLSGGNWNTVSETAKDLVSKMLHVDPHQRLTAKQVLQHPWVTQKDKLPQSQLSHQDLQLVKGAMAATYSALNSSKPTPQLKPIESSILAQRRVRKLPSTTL
Sequence of various enzymes (Homo sapiens, UniProt Q9BQI3) (Q9BQI3 whole entry): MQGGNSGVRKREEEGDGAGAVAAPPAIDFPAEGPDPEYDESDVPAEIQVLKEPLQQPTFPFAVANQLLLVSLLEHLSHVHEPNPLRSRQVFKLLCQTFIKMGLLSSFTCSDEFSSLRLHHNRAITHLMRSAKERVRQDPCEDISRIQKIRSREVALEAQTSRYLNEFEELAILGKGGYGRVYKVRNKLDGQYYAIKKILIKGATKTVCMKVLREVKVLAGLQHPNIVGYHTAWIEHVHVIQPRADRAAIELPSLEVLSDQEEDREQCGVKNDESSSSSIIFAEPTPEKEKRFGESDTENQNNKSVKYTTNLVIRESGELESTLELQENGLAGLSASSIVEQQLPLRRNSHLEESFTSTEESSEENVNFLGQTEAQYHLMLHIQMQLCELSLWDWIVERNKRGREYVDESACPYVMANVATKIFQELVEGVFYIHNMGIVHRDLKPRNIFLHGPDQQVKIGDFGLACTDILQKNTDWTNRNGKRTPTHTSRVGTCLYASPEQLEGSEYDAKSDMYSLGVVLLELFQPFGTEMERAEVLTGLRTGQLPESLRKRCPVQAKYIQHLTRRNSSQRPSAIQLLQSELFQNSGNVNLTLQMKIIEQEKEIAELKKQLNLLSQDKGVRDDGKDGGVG
Sequence of various enzymes (Homo sapiens, UniProt P29317) (P29317 24-976): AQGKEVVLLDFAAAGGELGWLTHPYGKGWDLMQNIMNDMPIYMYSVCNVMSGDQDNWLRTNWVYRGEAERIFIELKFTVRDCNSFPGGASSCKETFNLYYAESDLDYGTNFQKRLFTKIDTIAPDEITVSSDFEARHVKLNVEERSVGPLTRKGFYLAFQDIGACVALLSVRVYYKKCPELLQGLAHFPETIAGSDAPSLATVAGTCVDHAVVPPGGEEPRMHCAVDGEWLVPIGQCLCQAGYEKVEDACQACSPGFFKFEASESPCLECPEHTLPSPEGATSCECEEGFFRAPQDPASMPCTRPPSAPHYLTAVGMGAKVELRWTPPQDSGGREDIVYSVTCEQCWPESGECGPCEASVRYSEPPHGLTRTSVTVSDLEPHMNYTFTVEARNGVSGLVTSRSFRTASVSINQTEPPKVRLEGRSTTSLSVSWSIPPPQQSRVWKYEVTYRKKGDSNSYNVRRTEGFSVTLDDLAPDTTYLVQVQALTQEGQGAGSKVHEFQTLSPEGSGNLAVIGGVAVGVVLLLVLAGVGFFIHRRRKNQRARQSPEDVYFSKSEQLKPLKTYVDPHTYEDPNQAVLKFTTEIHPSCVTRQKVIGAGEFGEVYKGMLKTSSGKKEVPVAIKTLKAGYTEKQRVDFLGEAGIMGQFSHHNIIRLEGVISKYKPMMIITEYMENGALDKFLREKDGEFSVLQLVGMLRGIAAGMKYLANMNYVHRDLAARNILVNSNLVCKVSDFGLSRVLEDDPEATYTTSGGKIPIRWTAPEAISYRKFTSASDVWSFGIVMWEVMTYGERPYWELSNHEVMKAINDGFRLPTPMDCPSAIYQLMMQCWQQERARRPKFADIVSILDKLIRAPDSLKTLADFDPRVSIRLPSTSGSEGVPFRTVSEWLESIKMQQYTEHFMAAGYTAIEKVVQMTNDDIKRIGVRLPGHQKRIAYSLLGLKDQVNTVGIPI
Sequence of various enzymes (Homo sapiens, UniProt Q8NE63) (Q8NE63 whole entry): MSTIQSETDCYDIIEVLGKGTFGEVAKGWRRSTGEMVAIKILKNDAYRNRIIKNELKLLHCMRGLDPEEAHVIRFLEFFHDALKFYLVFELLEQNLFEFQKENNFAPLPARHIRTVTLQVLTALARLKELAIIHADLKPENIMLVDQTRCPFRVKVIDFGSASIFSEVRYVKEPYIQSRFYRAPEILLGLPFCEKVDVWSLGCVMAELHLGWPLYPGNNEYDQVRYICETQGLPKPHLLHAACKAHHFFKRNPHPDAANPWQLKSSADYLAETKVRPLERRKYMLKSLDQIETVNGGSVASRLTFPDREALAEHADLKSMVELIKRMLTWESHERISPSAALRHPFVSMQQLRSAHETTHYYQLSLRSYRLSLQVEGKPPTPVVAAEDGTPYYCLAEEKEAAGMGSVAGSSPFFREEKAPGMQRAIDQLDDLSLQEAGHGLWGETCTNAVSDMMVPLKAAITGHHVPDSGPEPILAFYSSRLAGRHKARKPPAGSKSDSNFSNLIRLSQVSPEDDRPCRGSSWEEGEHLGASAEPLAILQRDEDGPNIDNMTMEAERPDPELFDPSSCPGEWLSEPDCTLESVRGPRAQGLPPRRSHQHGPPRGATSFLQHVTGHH
Sequence of various enzymes (Homo sapiens, UniProt O14936) (O14936 whole entry): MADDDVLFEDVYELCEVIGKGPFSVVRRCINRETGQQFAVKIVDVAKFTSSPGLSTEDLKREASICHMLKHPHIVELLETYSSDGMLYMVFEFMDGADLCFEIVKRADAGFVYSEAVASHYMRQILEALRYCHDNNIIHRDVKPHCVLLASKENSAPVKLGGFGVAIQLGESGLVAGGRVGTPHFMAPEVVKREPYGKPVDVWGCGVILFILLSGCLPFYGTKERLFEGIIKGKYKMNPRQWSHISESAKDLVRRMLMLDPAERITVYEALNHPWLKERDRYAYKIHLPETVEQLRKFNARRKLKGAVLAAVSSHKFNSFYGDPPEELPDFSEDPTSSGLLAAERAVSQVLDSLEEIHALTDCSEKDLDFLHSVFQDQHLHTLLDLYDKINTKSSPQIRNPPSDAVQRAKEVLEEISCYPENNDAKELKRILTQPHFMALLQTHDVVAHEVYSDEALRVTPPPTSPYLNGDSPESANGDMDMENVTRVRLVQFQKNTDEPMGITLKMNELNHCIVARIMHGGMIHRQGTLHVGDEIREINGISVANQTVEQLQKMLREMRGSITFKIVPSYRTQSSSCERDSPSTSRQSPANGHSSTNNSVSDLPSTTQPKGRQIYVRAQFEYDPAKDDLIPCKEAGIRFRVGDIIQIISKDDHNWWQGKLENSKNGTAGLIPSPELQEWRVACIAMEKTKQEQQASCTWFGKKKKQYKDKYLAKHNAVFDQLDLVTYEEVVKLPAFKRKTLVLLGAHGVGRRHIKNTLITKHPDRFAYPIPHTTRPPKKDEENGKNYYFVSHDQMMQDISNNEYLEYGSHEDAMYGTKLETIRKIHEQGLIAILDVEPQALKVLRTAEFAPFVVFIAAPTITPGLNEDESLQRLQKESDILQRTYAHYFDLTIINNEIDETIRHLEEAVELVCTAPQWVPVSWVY

SMILES	Ambit profiling: YSK1 [1]	Ambit profiling: CASK [2]	Ambit profiling: ARK5 [3]	Ambit profiling: PIP5K1C [4]	Ambit profiling: LOK [5]	Ambit profiling: CHEK2 [6]	Ambit profiling: PDGFRA [9]	Ambit profiling: S6K1 [10]	Ambit profiling: GRK2 [11]	Ambit profiling: EPHA2 [12]	Ambit profiling: TYK2(JH1domain-catalytic) [13]	Ambit profiling: TYK2(JH2domain-pseudokinase) [13]	Ambit profiling: GRK4 [14]	Ambit profiling: MTOR [16]	Ambit profiling: CTK [17]	Ambit profiling: FRK [18]	Ambit profiling: JAK3(JH1domain-catalytic) [19]	Ambit profiling: TIE2 [20]	Ambit profiling: MAP4K2 [21]	Ambit profiling: RSK1(Kin.Dom.1-N-terminal) [22]	further results
COc1c2c(nn1C)CN(C(C)C)C(=O)CCCn1cc(c(C(F)(F)F)n1)-c1c[nH]c3ncc-2cc13 [Compound 50, (Z)-5-isopropyl-35-methoxy-31-methyl-13-(trifluoromethyl)-11H,21H,31H-5-aza-2(3,5)-pyrrolo[2,3-b]pyridina-1(4,1),3(4,3)-dipyrazolacyclononaphan-6-one]	25	36	100	32	0.4	80	5.6	8.6	87	56	19	84	38	98	53	10	0	2.7	44	3.8	Ambit profiling: TBKA [7]: 0; Ambit profiling: KIT(V559D, V654A) [8]: 70; Ambit profiling: FLT3(N841) [15]: 0; Ambit profiling: RSK1(Kin.Dom.2-C-terminal) [22]: 81; Ambit profiling: TRKC [23]: 0; Ambit profiling: PKN2 [24]: 100; Ambit profiling: RIPK5 [25]: 95; Ambit profiling: MAP3K15 [26]: 76; Ambit profiling: MARK2 [27]: 100; Ambit profiling: HIPK4 [28]: 1.5; Ambit profiling: CAMK1G [29]: 54; Ambit profiling: EIF2AK1 [30]: 66; Ambit profiling: HIPK3 [31]: 26; Ambit profiling: STK39 [32]: 100; Ambit profiling: DAPK2 [33]: 67; Ambit profiling: PIKFYVE [34]: 11; Ambit profiling: MRCKB [35]: 99
CC(C)N1Cc2nn(C)cc2-c2cnc3[nH]cc(c3c2)-c2cn(nc2C(F)(F)F)CCCC1=O [Compound 45, (Z)-5-isopropyl-31-methyl-13-(trifluoromethyl)-11H,21H,31H-5-aza-2(3,5)-pyrrolo[2,3-b]pyridina-1(4,1),3(4,3)-dipyrazolacyclononaphan-6-one]	38	7.4	100	5.8	4.7	82	11	2.5	100	48	19	100	14	69	70	11	0	6.7	3.9	17	Ambit profiling: TRKA [7]: 0; Ambit profiling: KIT(V559D, V654A) ([8]; compound 1 uM): 100; Ambit profiling: FLT3(N841I) [15]: 0; Ambit profiling: RSK1(Kin.Dom.2-C-terminal) [22]: 85; Ambit profiling: TRKC [23]: 0.1; Ambit profiling: PKN2 [24]: 100; Ambit profiling: RIPK5 [25]: 27; Ambit profiling: MAP3K15 [26]: 84; Ambit profiling: MARK2 [27]: 48; Ambit profiling: HIPK4 [28]: 2.1; Ambit profiling: CAMK1G [29]: 88; Ambit profiling: EIF2AK1 [30]: 100; Ambit profiling: HIPK3 [31]: 15; Ambit profiling: STK39 [32]: 98; Ambit profiling: DAPK2 [33]: 100; Ambit profiling: PIKFYVE [34]: 13; Ambit profiling: MRCKB [35]: 86
